According to patent US8192962B2, “Processes for detecting toxic substances” (Daikin Industries, Ltd., priority 2001, dated 2012):

System: Metabolism protein genes
Test: DNA chip mRNA expression in yeast, metabolism protein genes (Table 7)
Type: cell-based, Saccharomyces cerevisiae S288C
Description: Yeast (Saccharomyces cerevisiae S288C (α SUC2mal mel gap2 CUP1)) were incubated at 25° C. on YPD medium (yeast extract 1%, polypepton 2%, glucose 2%). One of toxic chemical substances was added to the cells at logarithmic growth phase, and the cells were further incubated for two hours. Cells were cultured without any chemical substance in the same condition, and were used as control. Concentrations of the chemical substances were defined to inhibit the growth of the yeast but not lead to death.
After completion of the incubation, the culture was centrifuged to collect the cells. To the cells, sodium acetate buffer (50 mM sodium acetate, 10 mM EDTA, 1% SDS) was added, and the mixture was shaken at 65° C. for five minutes, followed by returning to room temperature, and obtaining the supernatant, of which the procedures were repeated two times. To the supernatant, ½ amount of a solution of phenol/chloroform was added, and the mixture was centrifuged to give a supernatant, which was added with an equal amount of chloroform, and the mixture was centrifuged to give a supernatant. To the supernatant, an equal amount of isopropanol containing 0.3 M sodium acetate was added, and the mixture was allowed to stand at room temperature for 30 minutes, after which the mixture was centrifuged to give a sediment of the whole RNAs. Seventy % ethanol was added to the sediment, and the mixture was again centrifuged to give a sediment, which was then dried and dissolved in water. mRNA was isolated from the whole RNAs as followings. In view of the fact that a poly A chain is attached to the 3′ terminus of mRNA, a polynucleotide having a poly T structure which was immobilized on the surface of latex beads was used to trap the mRNA, and then the mRNA was washed and eluted with spine column (Oligotex-dT30<Super>mRNA Purification Kit, Takara). Reverse transcription of the mRNA was conducted with a reverse transcriptase (Super Script II Reverse Transcriptase; catalogue No. 18064-014, GibcoBRL) using fluorescence-labeled nucleotides to give cDNAs that were introduced with Cy3-dUTP or Cy5-dUTP during the reverse transcription.
The labeled cDNAs were dissolved in TE buffer (10mM Tris-HCl/1 mM EDTA, pH8.0), and the solution was dropped on the DNA chip containing the whole genes of yeast (DNA Chip Research Inc. Japan) so that the cDNAs were hybridized on the DNA chip at 65° C. for over 12 hours. The fluoresces intensity of the DNA chip was read with a scanner, and the ratio relative to the fluorescence intensity resulting from the absence of chemical substance was estimated as the following, which is shown in Tables 1 to 9: […]

SMILES: [Cl][Pb][Cl] [(4), PbCl2]
- The level of expressed mRNA in the presence of chemical substance/The level of expressed mRNA in the absence of chemical substance (yeast gene YAL012W): 0.8
- The level of expressed mRNA in the presence of chemical substance/The level of expressed mRNA in the absence of chemical substance (yeast gene YAL038W): 1.4
- level of expressed mRNA in the presence/in the absence of chemical substance (yeast gene YBR003W): 1.9
- level of expressed mRNA in the presence/in the absence of chemical substance (yeast gene YBR011C): 1.1
- level of expressed mRNA in the presence/in the absence of chemical substance (yeast gene YBR020W): 1.9
- The level of expressed mRNA in the presence of chemical substance/The level of expressed mRNA in the absence of chemical substance (yeast gene YBR023C): 1.1
- The level of expressed mRNA in the presence of chemical substance/The level of expressed mRNA in the absence of chemical substance (yeast gene YBR029C): 1.0
- The level of expressed mRNA in the presence of chemical substance/The level of expressed mRNA in the absence of chemical substance (yeast gene YBR183W): 2.9
- The level of expressed mRNA in the presence of chemical substance/The level of expressed mRNA in the absence of chemical substance (yeast gene YBR222C): 0.8
- The level of expressed mRNA in the presence of chemical substance/The level of expressed mRNA in the absence of chemical substance (yeast gene YBR256C): 1.3
- The level of expressed mRNA in the presence of chemical substance/The level of expressed mRNA in the absence of chemical substance (yeast gene YCL009C): 0.5
- The level of expressed mRNA in the presence of chemical substance/The level of expressed mRNA in the absence of chemical substance (yeast gene YCL064C): 0.8
- level of expressed mRNA in the presence/in the absence of chemical substance (yeast gene YCR010C): 4.2
- level of expressed mRNA in the presence/in the absence of chemical substance (yeast gene YCR034W): 0.9
- The level of expressed mRNA in the presence of chemical substance/The level of expressed mRNA in the absence of chemical substance (yeast gene YCR048W): 0.6
- The level of expressed mRNA in the presence of chemical substance/The level of expressed mRNA in the absence of chemical substance (yeast gene YCR098C): 2.0
- The level of expressed mRNA in the presence of chemical substance/The level of expressed mRNA in the absence of chemical substance (yeast gene YDR019C): 4.0
- level of expressed mRNA in the presence/in the absence of chemical substance (yeast gene YDR050C): 1.8
- level of expressed mRNA in the presence/in the absence of chemical substance (yeast gene YDR073W): 1.4
- level of expressed mRNA in the presence/in the absence of chemical substance (yeast gene YDR123C): 2.1
- level of expressed mRNA in the presence/in the absence of chemical substance (yeast gene YDR178W): 2.2
- level of expressed mRNA in the presence/in the absence of chemical substance (yeast gene YDR277C): 3.0
- level of expressed mRNA in the presence/in the absence of chemical substance (yeast gene YDR284C): 2.9
- level of expressed mRNA in the presence/in the absence of chemical substance (yeast gene YDR345C): 2.6
- The level of expressed mRNA in the presence of chemical substance/The level of expressed mRNA in the absence of chemical substance (yeast gene YDR380W): 1.7
- level of expressed mRNA in the presence/in the absence of chemical substance (yeast gene YDR400W): 0.7
- level of expressed mRNA in the presence/in the absence of chemical substance (yeast gene YDR408C): 4.1
- level of expressed mRNA in the presence/in the absence of chemical substance (yeast gene YDR483W): 2.0
- The level of expressed mRNA in the presence of chemical substance/The level of expressed mRNA in the absence of chemical substance (yeast gene YDR497C): 1.3
- The level of expressed mRNA in the presence of chemical substance/The level of expressed mRNA in the absence of chemical substance (yeast gene YDR502C): 1.2
- The level of expressed mRNA in the presence of chemical substance/The level of expressed mRNA in the absence of chemical substance (yeast gene YDR516C): 2.1
- level of expressed mRNA in the presence/in the absence of chemical substance (yeast gene YEL063C): 1.3
- level of expressed mRNA in the presence/in the absence of chemical substance (yeast gene YER015W): 1.5
- The level of expressed mRNA in the presence of chemical substance/The level of expressed mRNA in the absence of chemical substance (yeast gene YER026C): 1.0
- The level of expressed mRNA in the presence of chemical substance/The level of expressed mRNA in the absence of chemical substance (yeast gene YER053C): 1.7
- The level of expressed mRNA in the presence of chemical substance/The level of expressed mRNA in the absence of chemical substance (yeast gene YER069W): 1.4
- level of expressed mRNA in the presence/in the absence of chemical substance (yeast gene YER081W): 1.4
- The level of expressed mRNA in the presence of chemical substance/The level of expressed mRNA in the absence of chemical substance (yeast gene YER096W): 2.0
- level of expressed mRNA in the presence/in the absence of chemical substance (yeast gene YER120W): 0.8
- The level of expressed mRNA in the presence of chemical substance/The level of expressed mRNA in the absence of chemical substance (yeast gene YER178W): 1.0
- level of expressed mRNA in the presence/in the absence of chemical substance (yeast gene YFL011W): 3.3
- The level of expressed mRNA in the presence of chemical substance/The level of expressed mRNA in the absence of chemical substance (yeast gene YFL014W): 11.0
- The level of expressed mRNA in the presence of chemical substance/The level of expressed mRNA in the absence of chemical substance (yeast gene YFL030W): 2.0
- The level of expressed mRNA in the presence of chemical substance/The level of expressed mRNA in the absence of chemical substance (yeast gene YFL031W): 0.7
- The level of expressed mRNA in the presence of chemical substance/The level of expressed mRNA in the absence of chemical substance (yeast gene YFL056C): 1.5
- The level of expressed mRNA in the presence of chemical substance/The level of expressed mRNA in the absence of chemical substance (yeast gene YFL057C): 1.8
- The level of expressed mRNA in the presence of chemical substance/The level of expressed mRNA in the absence of chemical substance (yeast gene YFR047C): 2.6
- level of expressed mRNA in the presence/in the absence of chemical substance (yeast gene YGL012W): 1.2
- The level of expressed mRNA in the presence of chemical substance/The level of expressed mRNA in the absence of chemical substance (yeast gene YGL022W): 0.3
- level of expressed mRNA in the presence/in the absence of chemical substance (yeast gene YGL115W): 2.0
- The level of expressed mRNA in the presence of chemical substance/The level of expressed mRNA in the absence of chemical substance (yeast gene YGL126W): 0.8
- level of expressed mRNA in the presence/in the absence of chemical substance (yeast gene YGL205W): 0.8
- The level of expressed mRNA in the presence of chemical substance/The level of expressed mRNA in the absence of chemical substance (yeast gene YGL209W): 2.6
- The level of expressed mRNA in the presence of chemical substance/The level of expressed mRNA in the absence of chemical substance (yeast gene YGL248W): 0.7
- The level of expressed mRNA in the presence of chemical substance/The level of expressed mRNA in the absence of chemical substance (yeast gene YGR037C): 0.8
- The level of expressed mRNA in the presence of chemical substance/The level of expressed mRNA in the absence of chemical substance (yeast gene YGR055W): 0.7
- level of expressed mRNA in the presence/in the absence of chemical substance (yeast gene YGR096W): 4.6
- level of expressed mRNA in the presence/in the absence of chemical substance (yeast gene YGR191W): 1.5
- The level of expressed mRNA in the presence of chemical substance/The level of expressed mRNA in the absence of chemical substance (yeast gene YGR194C): 2.1
- level of expressed mRNA in the presence/in the absence of chemical substance (yeast gene YGR204W): 1.3
- The level of expressed mRNA in the presence of chemical substance/The level of expressed mRNA in the absence of chemical substance (yeast gene YGR256W): 0.8
- The level of expressed mRNA in the presence of chemical substance/The level of expressed mRNA in the absence of chemical substance (yeast gene YGR282C): 1.9
- level of expressed mRNA in the presence/in the absence of chemical substance (yeast gene YGR288W): 2.6
- level of expressed mRNA in the presence/in the absence of chemical substance (yeast gene YHR025W): 0.6
- The level of expressed mRNA in the presence of chemical substance/The level of expressed mRNA in the absence of chemical substance (yeast gene YHR111W): 1.9
- level of expressed mRNA in the presence/in the absence of chemical substance (yeast gene YHR123W): 1.0
- The level of expressed mRNA in the presence of chemical substance/The level of expressed mRNA in the absence of chemical substance (yeast gene YHR137W): 1.7
- The level of expressed mRNA in the presence of chemical substance/The level of expressed mRNA in the absence of chemical substance (yeast gene YHR174W): 1.2
- The level of expressed mRNA in the presence of chemical substance/The level of expressed mRNA in the absence of chemical substance (yeast gene YHR176W): 1.4
- level of expressed mRNA in the presence/in the absence of chemical substance (yeast gene YHR210C): 5.2
- level of expressed mRNA in the presence/in the absence of chemical substance (yeast gene YIL006W): 2.9
- The level of expressed mRNA in the presence of chemical substance/The level of expressed mRNA in the absence of chemical substance (yeast gene YIL045W): 2.2
- The level of expressed mRNA in the presence of chemical substance/The level of expressed mRNA in the absence of chemical substance (yeast gene YIL107C): 1.5
- The level of expressed mRNA in the presence of chemical substance/The level of expressed mRNA in the absence of chemical substance (yeast gene YIL154C): 0.8
- The level of expressed mRNA in the presence of chemical substance/The level of expressed mRNA in the absence of chemical substance (yeast gene YIL155C): 3.7
- The level of expressed mRNA in the presence of chemical substance/The level of expressed mRNA in the absence of chemical substance (yeast gene YIR034C): 0.6
- The level of expressed mRNA in the presence of chemical substance/The level of expressed mRNA in the absence of chemical substance (yeast gene YIR036C): 1.8
- The level of expressed mRNA in the presence of chemical substance/The level of expressed mRNA in the absence of chemical substance (yeast gene YJL031C): 1.3
- The level of expressed mRNA in the presence of chemical substance/The level of expressed mRNA in the absence of chemical substance (yeast gene YJL068C): 1.6
- The level of expressed mRNA in the presence of chemical substance/The level of expressed mRNA in the absence of chemical substance (yeast gene YJL088W): 0.5
- The level of expressed mRNA in the presence of chemical substance/The level of expressed mRNA in the absence of chemical substance (yeast gene YJL099W): 1.3
- level of expressed mRNA in the presence/in the absence of chemical substance (yeast gene YJL121C): 0.8
- level of expressed mRNA in the presence/in the absence of chemical substance (yeast gene YJL167W): 1.1
- The level of expressed mRNA in the presence of chemical substance/The level of expressed mRNA in the absence of chemical substance (yeast gene YJL172W): 1.5
- level of expressed mRNA in the presence/in the absence of chemical substance (yeast gene YJL216C): 0.9
- The level of expressed mRNA in the presence of chemical substance/The level of expressed mRNA in the absence of chemical substance (yeast gene YJL219W): 1.6
- level of expressed mRNA in the presence/in the absence of chemical substance (yeast gene YJR077C): 1.6
- The level of expressed mRNA in the presence of chemical substance/The level of expressed mRNA in the absence of chemical substance (yeast gene YJR137C): 0.8
- level of expressed mRNA in the presence/in the absence of chemical substance (yeast gene YJR143C): 0.8
- The level of expressed mRNA in the presence of chemical substance/The level of expressed mRNA in the absence of chemical substance (yeast gene YJR148W): 3.5
